Assay results published in the NIST ThermoML archive (doi:10.1016/j.jct.2016.02.016).
Numbers after ± are expanded uncertainties.

Experiment: xn = mol fraction of the nth substance listed
Details: 100 kPa, Liquid; for mass density: Vibrating tube method; for speed of sound: Frequency=3 MHz, Sing-around technique in a fixed-path interferometer

CCC(C)=O [butanone] + CN(C)C=O
Details | mass density [kg/m3] | speed of sound [m/s]
293.15 K, x2 = 0.5514 | 882.097 ± 2.1 | –
293.15 K, x2 = 0.6017 | 889.386 ± 2.1 | –
293.15 K, x2 = 0.6519 | 896.759 ± 2.2 | –
293.15 K, x2 = 0.7023 | 904.135 ± 2.2 | –
293.15 K, x2 = 0.7525 | 911.634 ± 2.2 | –
293.15 K, x2 = 0.8002 | 918.668 ± 2.2 | –
293.15 K, x2 = 0.8492 | 926.05 ± 2.2 | –
293.15 K, x2 = 0.9032 | 934.175 ± 2.3 | –
293.15 K, x2 = 0.9477 | 940.9 ± 2.3 | –
298.15 K, x2 = 0 | 799.78 ± 1.9 | 1191.5 ± 1.2
298.15 K, x2 = 0.0519 | 806.811 ± 2 | 1204.4 ± 1.3
298.15 K, x2 = 0.1048 | 814.011 ± 2 | 1217.5 ± 1.3
298.15 K, x2 = 0.1506 | 820.379 ± 2 | 1229.3 ± 1.3
298.15 K, x2 = 0.1948 | 826.51 ± 2 | 1240.5 ± 1.3
298.15 K, x2 = 0.2482 | 834.008 ± 2 | 1254.4 ± 1.3
298.15 K, x2 = 0.3032 | 841.593 ± 2 | 1268.4 ± 1.3
298.15 K, x2 = 0.3543 | 848.769 ± 2.1 | 1281.6 ± 1.4
298.15 K, x2 = 0.3962 | 854.829 ± 2.1 | 1292.8 ± 1.4
298.15 K, x2 = 0.4495 | 862.429 ± 2.1 | 1306.9 ± 1.4
298.15 K, x2 = 0.4916 | 868.442 ± 2.1 | 1318 ± 1.4
298.15 K, x2 = 0.5536 | 877.384 ± 2.1 | 1334.6 ± 1.4
298.15 K, x2 = 0.5946 | 883.427 ± 2.1 | 1345.8 ± 1.4
298.15 K, x2 = 0.6572 | 892.579 ± 2.2 | 1362.3 ± 1.4
298.15 K, x2 = 0.7034 | 899.388 ± 2.2 | 1375.5 ± 1.4
298.15 K, x2 = 0.7461 | 905.863 ± 2.2 | 1387.6 ± 1.5
298.15 K, x2 = 0.7965 | 913.261 ± 2.2 | 1401.3 ± 1.5
298.15 K, x2 = 0.8488 | 921.083 ± 2.2 | 1415.8 ± 1.5
298.15 K, x2 = 0.894 | 928.027 ± 2.2 | 1428.6 ± 1.5
298.15 K, x2 = 0.9427 | 935.405 ± 2.3 | 1442.1 ± 1.5
303.15 K, x2 = 0 | 794.55 ± 1.9 | 1172 ± 1.2
303.15 K, x2 = 0.0496 | 801.341 ± 1.9 | 1184.6 ± 1.3
303.15 K, x2 = 0.1068 | 809.288 ± 2 | 1199.1 ± 1.3
303.15 K, x2 = 0.1478 | 814.925 ± 2 | 1209.5 ± 1.3
303.15 K, x2 = 0.1836 | 819.8 ± 2 | 1218.5 ± 1.3
303.15 K, x2 = 0.2521 | 829.427 ± 2 | 1236.4 ± 1.3
303.15 K, x2 = 0.2943 | 835.351 ± 2 | 1248.2 ± 1.3
303.15 K, x2 = 0.3532 | 843.706 ± 2 | 1262.8 ± 1.3
303.15 K, x2 = 0.3938 | 849.516 ± 2.1 | 1273.5 ± 1.4
303.15 K, x2 = 0.4538 | 858.11 ± 2.1 | 1289.4 ± 1.4
303.15 K, x2 = 0.4969 | 864.319 ± 2.1 | 1301.1 ± 1.4
303.15 K, x2 = 0.5486 | 871.924 ± 2.1 | 1315.5 ± 1.4
303.15 K, x2 = 0.6028 | 879.882 ± 2.1 | 1330.1 ± 1.4
303.15 K, x2 = 0.6517 | 886.955 ± 2.1 | 1343.2 ± 1.4
303.15 K, x2 = 0.7023 | 894.541 ± 2.2 | 1357.4 ± 1.4
303.15 K, x2 = 0.7483 | 901.328 ± 2.2 | 1369.9 ± 1.4
303.15 K, x2 = 0.7995 | 908.942 ± 2.2 | 1384.1 ± 1.4
303.15 K, x2 = 0.8514 | 916.844 ± 2.2 | 1399 ± 1.5
303.15 K, x2 = 0.8982 | 923.832 ± 2.2 | 1410.9 ± 1.5
303.15 K, x2 = 0.946 | 931.082 ± 2.2 | 1425.2 ± 1.5
